Key:
panel of 442 kinases [1] = molecular target: T1, panel of 442 kinases (Homo sapiens, UniProt P42336, H1047L); assay type: binding; details: Compound Concentration 10 µM
T1 construct: purchased KINOMEscan
Text: (§1) We assessed the selectivity of members of this scaffold using the KINOMEscan methodology across a near comprehensive panel of 442 kinases [[18,27]].

panel of 442 kinases [2] = molecular target: T2, panel of 442 kinases (Homo sapiens, UniProt Q8TD19); assay type: binding; details: Compound Concentration 10 µM
T2 construct: purchased KINOMEscan
T2 sequence (Q8TD19 1-979): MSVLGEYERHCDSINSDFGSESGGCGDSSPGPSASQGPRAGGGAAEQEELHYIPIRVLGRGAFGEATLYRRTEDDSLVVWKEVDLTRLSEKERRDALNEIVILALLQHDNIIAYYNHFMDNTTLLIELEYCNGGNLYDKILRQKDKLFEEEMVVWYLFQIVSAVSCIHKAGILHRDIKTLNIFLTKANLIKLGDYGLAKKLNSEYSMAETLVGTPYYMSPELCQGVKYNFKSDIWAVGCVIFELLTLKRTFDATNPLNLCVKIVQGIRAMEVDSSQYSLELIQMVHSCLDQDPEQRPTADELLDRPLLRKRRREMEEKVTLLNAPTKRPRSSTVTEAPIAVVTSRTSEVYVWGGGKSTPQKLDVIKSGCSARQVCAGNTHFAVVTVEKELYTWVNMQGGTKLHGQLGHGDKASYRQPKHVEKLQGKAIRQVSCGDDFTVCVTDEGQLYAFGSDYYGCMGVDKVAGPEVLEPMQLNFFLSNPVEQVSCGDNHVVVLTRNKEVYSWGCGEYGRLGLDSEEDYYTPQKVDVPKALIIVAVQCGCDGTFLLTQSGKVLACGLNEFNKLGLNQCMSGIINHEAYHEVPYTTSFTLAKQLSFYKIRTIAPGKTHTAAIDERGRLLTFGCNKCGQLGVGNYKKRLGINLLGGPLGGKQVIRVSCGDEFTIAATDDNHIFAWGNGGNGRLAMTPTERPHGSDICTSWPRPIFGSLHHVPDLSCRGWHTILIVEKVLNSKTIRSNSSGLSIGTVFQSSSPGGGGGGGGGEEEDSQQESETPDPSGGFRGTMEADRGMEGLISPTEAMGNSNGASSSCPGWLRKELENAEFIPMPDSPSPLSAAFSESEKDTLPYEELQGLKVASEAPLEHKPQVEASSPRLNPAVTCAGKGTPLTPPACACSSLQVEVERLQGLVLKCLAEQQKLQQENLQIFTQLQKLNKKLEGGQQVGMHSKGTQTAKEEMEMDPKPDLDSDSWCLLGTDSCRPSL
Text: as §1

T1 sequence (P42336 whole entry H1047L): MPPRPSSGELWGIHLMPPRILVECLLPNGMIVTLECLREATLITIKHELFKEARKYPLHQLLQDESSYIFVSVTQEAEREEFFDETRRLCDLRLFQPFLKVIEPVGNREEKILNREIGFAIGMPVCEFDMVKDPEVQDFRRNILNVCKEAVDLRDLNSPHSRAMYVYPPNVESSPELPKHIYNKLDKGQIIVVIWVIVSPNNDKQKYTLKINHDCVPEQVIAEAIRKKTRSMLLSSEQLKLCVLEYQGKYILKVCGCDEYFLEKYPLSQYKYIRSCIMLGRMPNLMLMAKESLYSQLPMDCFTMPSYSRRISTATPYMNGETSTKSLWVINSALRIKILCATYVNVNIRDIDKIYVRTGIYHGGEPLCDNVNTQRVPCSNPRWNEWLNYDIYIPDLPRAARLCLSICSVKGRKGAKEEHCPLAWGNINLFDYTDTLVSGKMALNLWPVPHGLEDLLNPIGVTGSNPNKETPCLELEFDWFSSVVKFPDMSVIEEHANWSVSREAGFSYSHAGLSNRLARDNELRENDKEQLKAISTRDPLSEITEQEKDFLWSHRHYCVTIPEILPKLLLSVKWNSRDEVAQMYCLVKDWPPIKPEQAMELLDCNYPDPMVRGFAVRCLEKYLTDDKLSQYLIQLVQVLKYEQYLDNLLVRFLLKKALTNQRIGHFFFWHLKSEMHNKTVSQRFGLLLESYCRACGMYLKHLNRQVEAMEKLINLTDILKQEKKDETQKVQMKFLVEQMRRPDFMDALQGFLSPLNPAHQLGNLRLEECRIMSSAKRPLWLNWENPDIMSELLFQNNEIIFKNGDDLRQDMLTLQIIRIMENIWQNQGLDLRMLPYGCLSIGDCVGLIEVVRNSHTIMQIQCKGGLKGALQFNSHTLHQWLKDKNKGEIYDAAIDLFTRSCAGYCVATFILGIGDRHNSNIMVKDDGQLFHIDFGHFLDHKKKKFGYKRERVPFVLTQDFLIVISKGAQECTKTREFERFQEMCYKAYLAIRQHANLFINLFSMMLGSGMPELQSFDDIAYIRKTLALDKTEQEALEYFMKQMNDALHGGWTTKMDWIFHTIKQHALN

| Structure (SMILES) | KINOMEscan: PIK3CA(H1047L) (panel of 442 kinases [1]) | KINOMEscan: NEK9 (panel of 442 kinases [2]) |
| --- | --- | --- |
| COc1cc(C(=O)N2CCC(N3CCN(C)CC3)CC2)ccc1Nc1ncc2c(n1)N(C)c1ccccc1C(=O)N2C [15 (LRRK2-IN-1)] | 20 | 100 |
| CCOc1cc(C(=O)N2CCC(N3CCN(C)CC3)CC2)ccc1Nc1ncc2c(n1)N(C1CCCC1)c1ccccc1C(=O)N2C [Compound 26] | 90 | 100 |
| COc1cc(C(=O)N2CCC(N3CCN(C)CC3)CC2)ccc1Nc1ncc2c(n1)N1CCc3cccc(c31)C(=O)N2C [Compound 24] | 94 | 87 |
| COc1cc(C(=O)N2CCC(N3CCN(C)CC3)CC2)ccc1Nc1ncc2c(n1)N(C1CCCC1)c1ccccc1C(=O)N2C [Compound 25, 11-cyclopentyl-2-((2-methoxy-4-(4-(4-methylpiperazin-1-yl)piperidine-1-carbonyl)phenyl)amino)-5-methyl-5H-benzo[e]pyrimido[5,4-b][1,4]diazepin-6(11H)-one] | 100 | 98 |

Source: publication PMC3914206
